{"source": "BindingDB's records for doi:10.1016/s0960-894x(01)00264-5", "about": "(Shionogi, 2001)", "target": "Chymotrypsinogen A (Bos taurus) (UniProt P00766)", "assay": "Compound was evaluated for its inhibitory activity against bovine pancreatic alpha-chymotrypsin", "data": [{"smiles": "Cc1ccc(N2C(=O)N(c3ccc(C)cc3)C2=O)cc1", "note": "[1,3-Di-p-tolyl-[1,3]diazetidine-2,4-dione]", "values": [{"measurement": "IC50", "value": 2.4, "unit": "nM"}]}]}
